Values quoted from earlier work as cited in Sander's compilation of Henry's law constants.
Values joined by “and” are separate entries in the source; they are usually repeats but may differ in a detail not shown here. Equal values may be shown once.

Assay: Henry solubility constant Hcp at 298.15 K (mol/(m3 Pa))
Settings: cited value
[1] = reference: Barcelo and Hennion (1997)
[2] = reference: Burkholder et al. (2015)
[3] = reference: Burkholder et al. (2019)
[4] = reference: Sander et al. (2006)
[5] = reference: Sander et al. (2011)
[6] = reference: Fogg and Sangster (2003)

Compound: CCCCCCO [1-hexanol]
- Henry solubility constant Hcp (reference: Brockbank (2013)): 0.76

Compound: CCc1ccc2ccccc2c1 [2-ethylnaphthalene]
- Henry solubility constant Hcp (reference: Mackay et al. (1992b)): 0.013

Compound: CCCCCOC=O [pentyl methanoate]
- Henry solubility constant Hcp (reference: Brockbank (2013)): 0.017

Compound: O=C1CCCCC1 [cyclohexanone]
- Henry solubility constant Hcp (reference: Brockbank (2013)): 1.5

Compound: C/C=C/CCCC [trans-2-heptene]
- Henry solubility constant Hcp (reference: Brockbank (2013)): 2.4e-05

Compound: COP(=S)(OC)Oc1ccc(Sc2ccc(OP(=S)(OC)OC)cc2)cc1 [temefos]
- Henry solubility constant Hcp [1]: 1.7

Compound: CCC/C=C/C=O [(E)-2-hexenal]
- Henry solubility constant Hcp (reference: Meynier et al. (2003)): 0.2

Compound: CC(C)CO [2-methyl-1-propanol]
- Henry solubility constant Hcp (reference: Brockbank (2013)): 0.8
- Henry solubility constant Hcp [2]: 0.83
- Henry solubility constant Hcp [3]: 0.83
- Henry solubility constant Hcp [4]: 1
- Henry solubility constant Hcp [5]: 1

Compound: Cc1cccnc1 [3-methylpyridine]
- Henry solubility constant Hcp (reference: Brockbank (2013)): 1.2

Compound: CCCBr [1-bromopropane]
- Henry solubility constant Hcp (reference: Brockbank (2013)): 0.0011

Compound: C1=CCCC1 [cyclopentene]
- Henry solubility constant Hcp (reference: Brockbank (2013)): 0.0002

Compound: CNC(=O)O/N=C/C(C)(C)SC [aldicarb]
- Henry solubility constant Hcp [1]: 31

Compound: C=Cc1ccccc1 [ethenylbenzene]
- Henry solubility constant Hcp (reference: Brockbank (2013)): 0.0036
- Henry solubility constant Hcp [6]: 0.0038
- Henry solubility constant Hcp (reference: Goldstein (1982)): 0.0038

Compound: CC(=O)CC(C)C [4-methyl-2-pentanone]
- Henry solubility constant Hcp (reference: Brockbank (2013)): 0.069
- Henry solubility constant Hcp (reference: Howard (1990)): 0.11

Compound: CCC[N+](=O)[O-] [1-nitropropane]
- Henry solubility constant Hcp (reference: Brockbank (2013)): 0.14
- Henry solubility constant Hcp [2]: 0.13
- Henry solubility constant Hcp [3]: 0.13
- Henry solubility constant Hcp [4]: 0.13
- Henry solubility constant Hcp [5]: 0.13

Compound: ClC(Cl)C(Cl)Cl [1,1,2,2-tetrachloroethane]
- Henry solubility constant Hcp (reference: Barr and Newsham (1987)): 0.018
- Henry solubility constant Hcp (reference: Brockbank (2013)): 0.024
- Henry solubility constant Hcp [2]: 0.023
- Henry solubility constant Hcp [3]: 0.023
- Henry solubility constant Hcp (reference: Goldstein (1982)): 0.023

Compound: CC(C)I [2-iodopropane]
- Henry solubility constant Hcp (reference: Brockbank (2013)): 0.00085

Compound: CCCCCCCC(C)O (configuration not stated) [2-nonanol]
- Henry solubility constant Hcp (reference: Brockbank (2013)): 0.21

Compound: CCC(O)CC [3-pentanol]
- Henry solubility constant Hcp (reference: Brockbank (2013)): 0.6

Compound: CC(O)CO (configuration not stated) [1,2-propanediol]
- Henry solubility constant Hcp [2]: 2700
- Henry solubility constant Hcp [3]: 2700

Compound: II [iodine (molecular)]
- Henry solubility constant Hcp (reference: Berdnikov and Bazhin (1970)): 0.031
- Henry solubility constant Hcp (reference: Palmer et al. (1985)): 0.03
- Henry solubility constant Hcp (reference: Thompson and Zafiriou (1983)): 0.011

Compound: O=[N+]([O-])c1ccc(Cl)cc1 [4-chloronitrobenzene]
- Henry solubility constant Hcp (reference: Brockbank (2013)): 0.64

Compound: FC(F)(Cl)Cl [dichlorodifluoromethane]
- Henry solubility constant Hcp (reference: Brockbank (2013)): 3.1e-05
- Henry solubility constant Hcp [2]: 3e-05
- Henry solubility constant Hcp [3]: 3e-05
- Henry solubility constant Hcp (reference: Goldstein (1982)): 3.5e-06
- Henry solubility constant Hcp [4]: 3e-05
- Henry solubility constant Hcp [5]: 3e-05

Compound: CCCCOCCOC(C)=O [2-butoxyethyl ethanoate]
- Henry solubility constant Hcp (reference: Brockbank (2013)): 1.8

Compound: CCCCOC(=O)c1ccccc1C(=O)OCCCC [dibutyl phthalate]
- Henry solubility constant Hcp (reference: Brockbank (2013)): 11
- Henry solubility constant Hcp (reference: McCarty (1980)): 0.16

Compound: CC(C)C [2-methylpropane]
- Henry solubility constant Hcp [2]: 9.1e-06
- Henry solubility constant Hcp [3]: 9.1e-06
- Henry solubility constant Hcp (reference: Hayduk (1986)): 9.1e-06
- Henry solubility constant Hcp [4]: 9.1e-06
- Henry solubility constant Hcp [5]: 9.1e-06

Compound: CCc1cccc(C)c1N(C(=O)CCl)C(C)COC (configuration not stated) [metolachlor]
- Henry solubility constant Hcp [1]: 11
- Henry solubility constant Hcp [6]: 620
- Henry solubility constant Hcp (reference: Muir et al. (2004)): 750 and 720
- Henry solubility constant Hcp (reference: Rice et al. (1997b)): 1200

Compound: CN(C)C [trimethylamine]
- Henry solubility constant Hcp [2]: 0.099
- Henry solubility constant Hcp [3]: 0.099

Compound: c1ccccc1 [benzene]
- Henry solubility constant Hcp (reference: Brockbank (2013)): 0.0018
- Henry solubility constant Hcp (reference: Goldstein (1982)): 0.0018

Compound: Cc1cccc(C=O)c1 [3-methylbenzaldehyde]
- Henry solubility constant Hcp (reference: Brockbank (2013)): 0.35

Compound: CC(C)C(C)O (configuration not stated) [3-methyl-2-butanol]
- Henry solubility constant Hcp (reference: Brockbank (2013)): 0.51

Compound: CCOP(=S)(OCC)OP(=S)(OCC)OCC [sulfotep]
- Henry solubility constant Hcp [1]: 0.0099

Compound: C=CCCCCCCCCCCCC [1-tetradecene]
- Henry solubility constant Hcp (reference: Brockbank (2013)): 3e-06

Compound: C=CCCCCCCCCCCCCC [1-pentadecene]
- Henry solubility constant Hcp (reference: Brockbank (2013)): 2.2e-06

Compound: CC(C)=CC1C(C(=O)OCc2cccc(Oc3ccccc3)c2)C1(C)C (configuration not stated) [phenothrin]
- Henry solubility constant Hcp (reference: MacBean (2012b)): 1.5

Compound: OCCCCO [1,4-butanediol]
- Henry solubility constant Hcp [2]: 35000
- Henry solubility constant Hcp [3]: 35000

Compound: CC(C)S [2-propanethiol]
- Henry solubility constant Hcp (reference: Brockbank (2013)): 0.0013

Compound: CC(C)CCC(C)(C)C [2,2,5-trimethylhexane]
- Henry solubility constant Hcp (reference: Brockbank (2013)): 1.9e-06
